In patent publication US20230203098A1, “HUMAN TRANSFERRIN RECEPTOR BINDING PEPTIDE” (priority 2020, published 2023):
Where two headings read alike, the source gives them in different places. Where a SMILES comes first, the peptide text is derived from it. Bridges are numbered along the chain shown (N, C = ends). [ ]: non-standard residue; d: D form. NMePhe(3-Cl) = CN[C@@H](Cc1cccc(Cl)c1)C(=O)O; NMeW = CN[C@@H](Cc1c[nH]c2ccccc12)C(=O)O; NMeY = CN[C@@H](Cc1ccc(O)cc1)C(=O)O; PEG4 = NCCOCCOCCOCCOCCC(=O)O; Dab = NCC[C@H](N)C(=O)O

Target: transferrin receptor (hTfR) (Homo sapiens, UniProt P02786)
Sequence (P02786 whole entry): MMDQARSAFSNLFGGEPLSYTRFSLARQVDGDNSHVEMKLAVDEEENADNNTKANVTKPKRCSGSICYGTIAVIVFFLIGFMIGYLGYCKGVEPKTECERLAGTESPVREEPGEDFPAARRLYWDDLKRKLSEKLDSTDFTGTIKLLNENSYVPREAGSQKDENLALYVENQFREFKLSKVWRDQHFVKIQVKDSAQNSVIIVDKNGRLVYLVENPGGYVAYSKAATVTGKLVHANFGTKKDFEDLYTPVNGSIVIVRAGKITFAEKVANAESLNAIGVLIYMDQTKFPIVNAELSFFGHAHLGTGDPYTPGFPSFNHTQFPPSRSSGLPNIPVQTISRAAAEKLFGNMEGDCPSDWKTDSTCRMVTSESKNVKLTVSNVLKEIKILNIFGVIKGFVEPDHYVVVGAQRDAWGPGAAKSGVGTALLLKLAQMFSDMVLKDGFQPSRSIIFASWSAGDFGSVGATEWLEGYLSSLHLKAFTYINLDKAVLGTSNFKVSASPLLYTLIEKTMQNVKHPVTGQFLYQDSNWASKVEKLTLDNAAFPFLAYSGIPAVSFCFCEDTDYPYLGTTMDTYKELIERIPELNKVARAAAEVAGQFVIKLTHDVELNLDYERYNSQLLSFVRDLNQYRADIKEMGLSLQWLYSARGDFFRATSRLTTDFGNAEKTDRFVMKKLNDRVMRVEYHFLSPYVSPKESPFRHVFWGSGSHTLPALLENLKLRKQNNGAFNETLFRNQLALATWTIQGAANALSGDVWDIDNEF
Assay: Intermolecular interaction evaluation test between transferrin receptor (hTfR) and peptide by surface plasmon resonance (SPR)
Assay type: binding
Procedure, shortened: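 hTfR captured on Ni-NTA chip then amine-coupled; peptides run single-cycle kinetics at 5–100 nM in 10 mM HEPES pH 8.0, 150 mM NaCl, 0.05% Tween 20, 0.1% BSA, 1.0% DMSO. KD from least-squares curve fitting of sensorgrams.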

[1] = surface plasmon resonance, hTfR, read-out: KD value for hTfR by SPR (class symbol)
[2] = surface plasmon resonance, peptide vs hTfR, read-out: KD value for hTfR by SPR (class symbol)

Structure (SMILES) | Kd [1] [nM] | Kd [2] [nM] | other results
CC[C@H](C)[C@@H]1NC(=O)[C@H](Cc2ccc(OC)cc2)NC(=O)[C@H](Cc2ccc(O)cc2)NC(=O)[C@H](CC(N)=O)NC(=O)[C@H](Cc2c[nH]c3ccccc23)N(C)C(=O)[C@H](C(C)C)NC(=O)[C@H](Cc2cccc(Cl)c2)N(C)C(=O)[C@H](C(C)C)NC(=O)[C@H](C)NC(=O)CSC[C@@H](C(=O)NCCOCCOCCOCCOCCC(N)=O)NC(=O)[C@H](Cc2ccc(O)cc2)N(C)C(=O)[C@H](Cc2ccccc2)NC(=O)[C@@H](CCCNC(=N)N)NC(=O)[C@H](CCCNC(=N)N)NC(=O)[C@H](CCN)NC1=O [compound 337] ({CH2CO}-AV[NMePhe(3-Cl)]V[NMeW]NYY(Me)I[Dab]R[dR]F[NMeY]C[PEG4]-NH2; thioether N-15) | – | – | Kd (surface plasmon resonance, peptide vs hTfR, read-out: KD value, hTfR binding by SPR (class symbol)): 1 to 100 nM
CC[C@H](C)[C@@H]1NC(=O)[C@H](Cc2ccc(O)cc2)NC(=O)[C@H](Cc2ccc(O)cc2)NC(=O)[C@H](CC(N)=O)NC(=O)[C@H](Cc2c[nH]c3ccccc23)NC(=O)[C@H](C(C)C)NC(=O)[C@H](Cc2ccccc2)N(C)C(=O)[C@H](C(C)C)NC(=O)[C@H](C)NC(=O)CSC[C@@H](C(=O)NCC(=O)N[C@H](CCC(=O)O)C(=O)N[C@H](CCC(=O)O)C(=O)N[C@H](CCC(=O)O)C(=O)NCC(=O)N[C@H](CCCCN)C(N)=O)NC(=O)[C@H](Cc2ccc(O)cc2)N(C)C(=O)[C@H](Cc2ccc(O)cc2)NC(=O)[C@H](CCCNC(=N)N)NC(=O)[C@H](CCCNC(=N)N)NC(=O)[C@H]([C@@H](C)CC)NC1=O [compound 444] | – | 1 to 100 | –
CC[C@H](C)[C@@H]1NC(=O)[C@H](Cc2ccc(O)cc2)NC(=O)[C@H](Cc2ccc(O)cc2)NC(=O)[C@H](CC(N)=O)NC(=O)[C@H](Cc2c[nH]c3ccccc23)N(C)C(=O)[C@H](C(C)C)NC(=O)[C@H](Cc2ccccc2)N(C)C(=O)[C@H](C(C)C)NC(=O)[C@H](C)NC(=O)CSC[C@@H](C(=O)NCC(=O)NCC(=O)N[C@@H](CCCNC(=N)N)C(=O)NCC(=O)N[C@@H](CCCNC(=N)N)C(=O)N[C@@H](CO)C(=O)N[C@@H](CCCCNC(=O)C2CCC(CN3C(=O)C=CC3=O)CC2)C(N)=O)NC(=O)[C@H](Cc2ccc(O)cc2)N(C)C(=O)[C@H](Cc2ccc(O)cc2)NC(=O)[C@H](CCCNC(=N)N)NC(=O)[C@H](CCCNC(=N)N)NC(=O)[C@H]([C@@H](C)CC)NC1=O (stereo partly drawn) [compound 198] | – | – | Kd (hTfR binding by SPR, hTfR No. 894 variant peptides, linker-added peptides and payload conjugates (Table 2), read-out: KD value obtained from the SPR measurement): 1 to 100 nM
CC[C@H](C)[C@@H]1NC(=O)[C@H](Cc2ccc(O)cc2)NC(=O)[C@H](Cc2ccc(O)cc2)NC(=O)[C@H](CC(N)=O)NC(=O)[C@H](Cc2c[nH]c3ccccc23)N(C)C(=O)[C@H](C(C)C)NC(=O)[C@H](Cc2cccc(Cl)c2)N(C)C(=O)[C@@H]2CCC(=O)NCCCC[C@H](NC(=O)[C@H]([C@@H](C)CC)NC1=O)C(=O)N[C@@H](CCCNC(=N)N)C(=O)N[C@@H](Cc1ccc(O)cc1)C(=O)N(C)[C@@H](Cc1ccc(O)cc1)C(=O)N[C@H](C(N)=O)CSCC(=O)N[C@@H](C)C(=O)N2 [compound 412] | – | 1 to 100 | –

Second part, led by results:

Kd [1] [nM] | Kd [2] [nM] | Structure (SMILES) | other results
1 to 100 | – | CC[C@H](C)[C@@H]1NC(=O)[C@H](Cc2ccc(OC)cc2)NC(=O)[C@H](Cc2ccc(O)cc2)NC(=O)[C@H](CC(N)=O)NC(=O)[C@H](Cc2c[nH]c3ccccc23)N(C)C(=O)[C@H](C(C)C)NC(=O)[C@H](Cc2cccc(Cl)c2)N(C)C(=O)[C@H](C(C)C)NC(=O)[C@H](C)NC(=O)CSC[C@@H](C(=O)NCC(=O)N[C@H](CCC(=O)O)C(=O)NCC(=O)N[C@H](CCC(=O)O)C(=O)N[C@@H](CO)C(=O)N[C@@H](CO)C(=O)N[C@@H](CS)C(N)=O)NC(=O)[C@H](Cc2ccc(O)cc2)N(C)C(=O)[C@H](Cc2ccccc2)NC(=O)[C@@H](CCCNC(=N)N)NC(=O)[C@H](CCCNC(=N)N)NC(=O)[C@H]([C@@H](C)CC)NC1=O [compound 403] | –
1 to 100 | – | CC[C@H](C)[C@@H]1NC(=O)[C@H](Cc2ccc(OC)cc2)NC(=O)[C@H](Cc2ccc(O)cc2)NC(=O)[C@H](CC(N)=O)NC(=O)[C@H](Cc2c[nH]c3ccccc23)N(C)C(=O)[C@H](C(C)C)NC(=O)[C@H](Cc2cccc(Cl)c2)N(C)C(=O)[C@H](C(C)C)NC(=O)[C@H](C)NC(=O)CSC[C@@H](C(=O)N[C@H](CCC(=O)O)C(=O)N(C)CC(=O)N[C@H](CCC(=O)O)C(N)=O)NC(=O)[C@H](Cc2ccc(O)cc2)N(C)C(=O)[C@H](Cc2ccccc2)NC(=O)[C@@H](CCCNC(=N)N)NC(=O)C(C)(C)NC(=O)[C@H]([C@@H](C)CC)NC1=O [compound 357] | –
